Experimental data taken from US20100278835A1, “NOVEL COMPOUNDS 660” (ASTRAZENECA UK LIMITED, priority 2009, published 2010).

The compounds below were run on RSV RSS strain (assay: ELISA assay of antiviral activity against RSV (reduction in RSV protein expression)). Settings: Hep-2 cells infected with RSV RSS strain, multiplicity of infection 0.02, 3 days; concentration required to inhibit RSV protein expression by 50%.
Assay type: cell-based
Method: The antiviral activity of these compounds against RSV was determined in an ELISA assay. […] ELISA assays were set up by seeding 96-well plates with 5×10^3 Hep-2 cells per well in 100 μl DMEM containing 10% FBS for 24 h. Compound dilutions were prepared in 0.5% DMSO and 50 μl/well was added to the assay plates, the plates were incubated at 37° C. in 5% CO2 for one hour. Cells were infected with 50 μl/well RSV RSS strain at a multiplicity of infection of 0.02 and were incubated at 37° C. in 5% CO2 for 3 days. Cells were then fixed and permeabilised with 75%/25% methanol acetone and blocked with 2% Marvel™, 0.05% Tween for one hour. Plates were then incubated in the presence of a 1:4000 dilution of […] polyclonal antibody (Millipore, AB1128) followed by a 1:1000 dilution of rabbit anti-goat, horseradish peroxidase (DAKO, PO449) labelled secondary antibody. The plates were developed with O-phenylenediamine in the presence of hydrogen peroxide. The antiviral activity of the compounds is presented as an IC50, the concentration required to inhibit RSV protein expression by 50%.

Compound	IC50
1-[[5-(aminomethyl)-1-(4-hydroxybutyl)benzimidazol-2-yl]methyl]-3-(2-methoxyethyl)-4H-quinazolin-2-one [Example 26]	0.4 nM
1-[[5-(aminomethyl)-1-(4-hydroxybutyl)benzimidazol-2-yl]methyl]-3-(cyclohexylmethyl)-4H-quinazolin-2-one [Example 27]	94 nM
1-[[5-(aminomethyl)-1-(4-hydroxybutyl)benzimidazol-2-yl]methyl]-3-cyclopropyl-4H-quinazolin-2-one [Example 25]	1.5 nM
1-[[5-[(3-aminopropylamino)methyl]-1-isopentyl-benzimidazol-2-yl]methyl]-3-(2-methoxyethyl)-4H-quinazolin-2-one [Example 33]	243 nM
1-[[5-[(3-aminopropylamino)methyl]-1-isopentyl-benzimidazol-2-yl]methyl]-3-cyclopropyl-4H-quinazolin-2-one [Example 32]	32 nM
1-[[5-[(3-aminopropylamino)methyl]-1-isopentyl-benzimidazol-2-yl]methyl]-3-methyl-4H-quinazolin-2-one [Example 31]	23 nM
2-[(3-cyclopropyl-2-oxo-4H-quinazolin-1-yl)methyl]-N′-hydroxy-1-isopentyl-benzimidazole-5-carboxamidine [Example 38]	88.9 nM
3-cyclopropyl-1-[(1-isopentylbenzimidazol-2-yl)methyl]-4,4-dimethyl-quinazolin-2-one [Example 4]	1420 nM
CC(C)CCN1Cc2ccccc2N(Cc2nc3cc(CN)ccc3n2CCC(C)C)C1=O [Example 14, 1-[[5-(aminomethyl)-1-isopentyl-benzimidazol-2-yl]methyl]-3-isopentyl-4H-quinazolin-2-one]	2.1 nM
CC(C)CCn1c(CN2C(=O)N(CCCN3CCCC3)Cc3ccccc32)nc2cc(CN)ccc21 [Example 17, 1-[[5-(aminomethyl)-1-isopentyl-benzimidazol-2-yl]methyl]-3-(3-pyrrolidin-1-ylpropyl)-4H-quinazolin-2-one]	13.7 nM
CC(C)CCn1c(CN2C(=O)N(CC3CCCCC3)Cc3ccccc32)nc2cc(CN)ccc21 [Example 19, 1-[[5-(aminomethyl)-1-isopentyl-benzimidazol-2-yl]methyl]-3-(cyclohexylmethyl)-4H-quinazolin-2-one]	2890 nM
CC(C)CCn1c(CN2C(=O)N(C3CC3)C(C)c3ccccc32)nc2cc(C(=N)N)ccc21 (stereo not drawn) [Example 36, 2-[(3-cyclopropyl-4-methyl-2-oxo-4H-quinazolin-l-yl)methyl]-1-isopentyl-benzimidazole-5-carboxamidine]	8.4 nM

Same assay, conditions: human respiratory syncytial virus, 72 h; Hep-2 cells infected with RSV RSS strain, multiplicity of infection 0.02, 3 days; concentration required to inhibit RSV protein expression by 50%

Compound	IC50
CC(C)CCn1c(CN2C(=O)N(C3CC3)Cc3ccccc32)nc2ccccc21 [Example 1]	1890 nM
CC(C)CCN1Cc2ccccc2N(Cc2nc3ccccc3n2CCC(C)C)C1=O [Example 2, 3-isopentyl-1-[(1-isopentylbenzimidazol-2-yl)methyl]-4H-quinazolin-2-one]	> 1000 nM
CC(C)CCn1c(CN2C(=O)N(C3CC3)C(C)c3ccccc32)nc2ccccc21 (stereo not drawn) [Example 3, 3-cyclopropyl-1-[(1-isopentylbenzimidazol-2-yl)methyl]-4-methyl-4H-quinazolin-2-one]	1300 nM
CCCN1Cc2ccccc2N(Cc2nc3cc(CN)ccc3n2CCC(C)C)C1=O [Example 6, 1-[[5-(aminomethyl)-1-isopentyl-benzimidazol-2-yl]methyl]-3-propyl-4H-quinazolin-2-one]	1.2 nM
CC(C)CCn1c(CN2C(=O)N(C(C)(C)C)Cc3ccccc32)nc2cc(CN)ccc21 [Example 8, 1-[[5-(aminomethyl)-1-isopentyl-benzimidazol-2-yl]methyl]-3-tert-butyl-4H-quinazolin-2-one]	16.7 nM
CC(C)CCn1c(CN2C(=O)N(C3CCCC3)Cc3ccccc32)nc2cc(CN)ccc21 [Example 9, 1-[[5-(aminomethyl)-1-isopentyl-benzimidazol-2-yl]methyl]-3-cyclopentyl-4H-quinazolin-2-one]	1.3 nM
CC(C)CCn1c(CN2C(=O)N(Cc3ccccc3)Cc3ccccc32)nc2cc(CN)ccc21 [Example 10, 1-[[5-(aminomethyl)-1-isopentyl-benzimidazol-2-yl]methyl]-3-benzyl-4H-quinazolin-2-one]	15.7 nM
CC(C)CCn1c(CN2C(=O)N(CCc3ccccc3)Cc3ccccc32)nc2cc(CN)ccc21 [Example 11, 1-[[5-(aminomethyl)-1-isopentyl-benzimidazol-2-yl]methyl]-3-phenethyl-4H-quinazolin-2-one]	18.8 nM
CC(C)CCn1c(CN2C(=O)N(C3CC3)Cc3cccnc32)nc2cc(CN)ccc21 [Example 12, 1-[[5-(aminomethyl)-1-isopentyl-benzimidazol-2-yl]methyl]-3-cyclopropyl-4H-pyrido[2,3-d]pyrimidin-2-one]	53.1 nM
CC(C)CCn1c(CN2C(=O)N(CC(C)C)Cc3ccccc32)nc2cc(CN)ccc21 [Example 15, 1-[[5-(aminomethyl)-1-isopentyl-benzimidazol-2-yl]methyl]-3-isobutyl-4H-quinazolin-2-one]	1.9 nM
CC(C)CCn1c(CN2C(=O)N(CC3CC3)Cc3ccccc32)nc2cc(CN)ccc21 [Example 16, 1-[[5-(aminomethyl)-1-isopentyl-benzimidazol-2-yl]methyl]-3-(cyclopropylmethyl)-4H-quinazolin-2-one]	5.9 nM
CSCCN1Cc2ccccc2N(Cc2nc3cc(CN)ccc3n2CCC(C)C)C1=O [Example 18, 1-[[5-(aminomethyl)-1-isopentyl-benzimidazol-2-yl]methyl]-3-(2-methylsulfanylethyl)-4H-quinazolin-2-one]	4 nM
CC(C)CCn1c(CN2C(=O)N(C3CC3)Cc3c2cccc3C(F)(F)F)nc2cc(CN)ccc21 [Example 22, 1-[[5-(aminomethyl)-1-isopentyl-benzimidazol-2-yl]methyl]-3-cyclopropyl-5-(trifluoromethyl)-4H-quinazolin-2-one]	8.9 nM
CN1Cc2ccccc2N(Cc2nc3cc(CN)ccc3n2CCCCO)C1=O [Example 24, 1-[[5-(aminomethyl)-1-(4-hydroxybutyl)benzimidazol-2-yl]methyl]-3-methyl-4H-quinazolin-2-one]	3.2 nM
CC1c2ccccc2N(Cc2nc3cc(CN)ccc3n2CCCC(F)(F)F)C(=O)N1C1CC1 (stereo not drawn) [Example 29, 1-[[5-(aminomethyl)-1-(4,4,4-trifluorobutyl)benzimidazol-2-yl]methyl]-3-cyclopropyl-4-methyl-4H-quinazolin-2-one]	3.8 nM
CC1(C)c2ccccc2N(Cc2nc3cc(CN)ccc3n2CCCC(F)(F)F)C(=O)N1C1CC1 [Example 30, 1-[[5-(aminomethyl)-1-(4,4,4-trifluorobutyl)benzimidazol-2-yl]methyl]-3-cyclopropyl-4,4-dimethyl-quinazolin-2-one]	11 nM
CN1Cc2ccccc2N(Cc2nc3cc(CNCCCN)ccc3n2CCCCO)C1=O [Example 34, 1-[[5-[(3-Aminopropylamino)methyl]-1-(4-hydroxybutyl)benzimidazole-2-yl]methyl]-3-methyl-4H-quinazolin-2-one]	84 nM
CC(C)CCn1c(CN2C(=O)N(C3CC3)C(C)(C)c3ccccc32)nc2cc(C(=N)N)ccc21 [Example 37, 2-[(3-cyclopropyl-4,4-dimethyl-2-oxo-quinazolin-1-yl)methyl]-1-isopentyl-benzimidazole-5-carboxamidine]	42 nM
CC(C)CCn1c(CN2C(=O)N(C3CC3)C(C)c3ccccc32)nc2cc(C(N)=NO)ccc21 (stereo not drawn) [Example 39, 2-[(3-cyclopropyl-4-methyl-2-oxo-4H-quinazolin-1-yl)methyl]-N′-hydroxy-1-isopentyl-benzimidazole-5-carboxamidine]	400 nM
CC(C)CCn1c(CN2C(=O)N(C3CC3)C(C)(C)c3ccccc32)nc2cc(/C(N)=N/O)ccc21 [Example 40, 2-[(3-cyclopropyl-4,4-dimethyl-2-oxo-quinazolin-1-yl)methyl]-N′-hydroxy-1-isopentyl-benzimidazole-5-carboxamidine]	> 1000 nM
N=C(N)c1ccc2c(c1)nc(CN1C(=O)N(C3CC3)Cc3ccccc31)n2CCCC(F)(F)F [Example 41, 2-[(3-cyclopropyl-2-oxo-4H-quinazolin-1-yl)methyl]-1-(4,4,4-trifluorobutyl)benzimidazole-5-carboxamidine]	1.6 nM
CC1c2ccccc2N(Cc2nc3cc(C(=N)N)ccc3n2CCCC(F)(F)F)C(=O)N1C1CC1 (stereo not drawn) [Example 42, 2-[(3-cyclopropyl-4-methyl-2-oxo-4H-quinazolin-1-yl)methyl]-1-(4,4,4-trifluorobutyl)benzimidazole-5-carboxamidine]	11.8 nM
CC1(C)c2ccccc2N(Cc2nc3cc(C(=N)N)ccc3n2CCCC(F)(F)F)C(=O)N1C1CC1 [Example 43, 2-[(3-cyclopropyl-4,4-dimethyl-2-oxo-quinazolin-1-yl)methyl]-1-(4,4,4-trifluorobutyl)benzimidazole-5-carboxamidine]	18 nM
CC1c2ccccc2N(Cc2nc3cc(C(N)=NO)ccc3n2CCCC(F)(F)F)C(=O)N1C1CC1 (stereo not drawn) [Example 44, 2-[(3-cyclopropyl-4-methyl-2-oxo-4H-quinazolin-1-yl)methyl]-N′-hydroxy-1-(4,4,4-trifluorobutyl)benzimidazole-5-carboxamidine]	229 nM
